Reference: ChEMBL document CHEMBL1158975, “An antiviral sesquiterpene hydroquinone from the marine sponge Strongylophora hartmani” (J Nat Prod, 1991)
≈ marks a conversion by molar mass, not a printed value.

Columns and labels:
P388 = assay: Cytotoxicity against mouse P388 cells by microculture tetrazolium assay; assay type: functional, cell-based
[1] = Therapeutic index, ratio of cytotoxicity against MDCK cells to IC50 for influenza virus A/Puerto Rico/8/34 H1N1; assay type: cell-based; settings: dog, read-out: TI
Influenza A virus = assay: Antiviral activity against influenza virus A/Puerto Rico/8/34 H1N1 in MDCK cells assessed as reduction in virus-induced cytopathic effect after 3 days by neutral red uptake assay; assay type: functional, organism-based; settings: A/Puerto Rico/8/1934(H1N1), 72 h

| Compound | IC50 (P388) [µg/mL] | selectivity ratio [1] | IC50 (Influenza A virus) [µg/mL] |
| --- | --- | --- | --- |
| COc1ccc(OC(C)=O)c2c1C[C@]1(C)[C@@H](C)CC[C@H]3C(C)(C)CCC[C@]31O2 | 23.8 (≈ 61.6 µM) | 100 | 5 (≈ 12.9 µM) |
| COc1ccc(O)c2c1C[C@]1(C)[C@@H](C)CC[C@H]3C(C)(C)CCC[C@]31O2 [STRONGYLIN A] | 13 (≈ 37.7 µM) | 9 | 6.5 (≈ 18.9 µM) |
